Data: patent US20020137929A1, “1 - (3-heterocyclylphenyl) isothiourea, -isourea, -guanidine and -amidine herbicidal agents” (Intellectual Property Department, BASF Aktiengesellschaft, priority 1998, published 2002)

Key:
[1] = system: ECHCG (Barnyardgrass); test: Postemergence herbicidal evaluation; format: in vivo, Echinochloa crus-galli; details: postemergence
Method in brief: (§1)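 Scores (0–9) reflect plant stand, vigor, malformation, size, chlorosis and general appearance relative to control, read 4 to 5 weeks after treatment and averaged where tests were repeated. Application: about 0.0156–0.500 kg/ha sprayed at 40 psi onto two-week seedlings.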

[2] = system: CHEAL (Lambsquarters, Common); test: Postemergence herbicidal evaluation; format: in vivo, Chenopodium album; details: postemergence
Method in brief: as §1

[3] = system: CHEAL (Lambsquarters, Common); test: Preemergence herbicidal evaluation; format: in vivo, Chenopodium album; details: rated 4-5 weeks after treatment
Method in brief: (§2)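 Rating at 4–5 wk post-spray on a 0–9 visual scale vs control. Application: aqueous acetone, ~0.0156–0.500 kg/ha, to soil surface after seeding, preemergence.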

[4] = system: AMBEL (Ragweed, Common); test: Postemergence herbicidal evaluation; format: in vivo, Ambrosia artemisifolia; details: postemergence
Method in brief: as §1

[5] = system: ABUTH (Velvetleaf); test: Preemergence herbicidal evaluation; format: in vivo, Abutilon theophrasti; details: rated 4-5 weeks after treatment
Method in brief: as §2

[6] = system: IPOHE (Morningglory, Ivyleaf); test: Postemergence herbicidal evaluation; format: in vivo, Ipomoea hederacea; details: postemergence
Method in brief: as §1

[7] = system: MOOVA (Monochoria); test: Preemergence weed control under flooded paddy conditions; format: in vivo, Monochoria vaginalis; details: rated 3-4 weeks after treatment
Method in brief: (§3)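 Herbicidal effect is scored visually on a 0-9 scale against an untreated control, three to four weeks after compounds are pipetted into the flood water (1.5 to 3 cm deep) over seeds planted in silt loam at 0.5 cm depth. Rates: about 0.0313 to 0.500 kg/ha.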

[8] = system: SAGPY (Arrowhead (Pygmaea)); test: as above; format: in vivo, Sagittaria pygmaea; details: rated 3-4 weeks after treatment
Method in brief: as §3

[9] = system: TRZAWR (Wheat, Winter, cv Riband); test: Postemergence herbicidal evaluation; format: in vivo, Triticum aestivum; details: postemergence
Method in brief: as §1

[10] = system: AMBEL (Ragweed, Common); test: Preemergence herbicidal evaluation; format: in vivo, Ambrosia artemisifolia; details: rated 4-5 weeks after treatment
Method in brief: as §2

[11] = system: CASOB (Sicklepod); test: Preemergence herbicidal evaluation; format: in vivo, Cassia obtusifolia; details: rated 4-5 weeks after treatment
Method in brief: as §2

[12] = system: CASOB (Sicklepod); test: Postemergence herbicidal evaluation; format: in vivo, Cassia obtusifolia; details: postemergence
Method in brief: as §1

[13] = system: GLXMAW (Soybean, Williams); test: Preemergence herbicidal evaluation; format: in vivo, Glycine max, (L.) Merr. cv Williams; details: rated 4-5 weeks after treatment
Method in brief: as §2

[14] = system: ORYSAT (Rice, Tebonnet); test: Preemergence herbicidal evaluation; format: in vivo, Oryza sativa, (L.) Tebonnet; details: rated 4-5 weeks after treatment
Method in brief: as §2

[15] = system: GLXMAW (Soybean, Williams); test: Postemergence herbicidal evaluation; format: in vivo, Glycine max, (L.) Merr. cv Williams; details: postemergence
Method in brief: as §1

[16] = system: IPOHE (Morningglory, Ivyleaf); test: Preemergence herbicidal evaluation; format: in vivo, Ipomoea hederacea; details: rated 4-5 weeks after treatment
Method in brief: as §2

Cn1c(C(F)(F)F)cc(=O)n(-c2cc(N=C3SCC(=O)N3C3CCCC3)c(Cl)cc2F)c1=O [Compound 166, 3-{4-Chloro-5-[(3-cyclopentyl-4-oxo-2-thiazolidinylidene)amino]-2-fluorophenyl}-1-methyl-6-(trifluoromethyl)-2,4(1H,3H)-pyrimidinedione]
Herbicidal rating ECHCG ([1]; rate 0.0156 kg/ha): 0.0
Herbicidal rating ECHCG ([1]; rate 0.0313 kg/ha): 0.0
Herbicidal rating ECHCG ([1]; rate 0.0625 kg/ha): 1.0
Herbicidal rating ECHCG ([1]; rate 0.1250 kg/ha): 2.0
Herbicidal rating CHEAL ([2]; rate 0.0156 kg/ha): 0.0
Herbicidal rating CHEAL ([2]; rate 0.0313 kg/ha): 1.0
Herbicidal rating CHEAL ([2]; rate 0.0625 kg/ha): 4.0
Herbicidal rating CHEAL ([2]; rate 0.1250 kg/ha): 7.0
Preemergence herbicidal rating CHEAL ([3]; 0.0156 kg/ha): 1.0
Preemergence herbicidal rating CHEAL ([3]; 0.0313 kg/ha): 0.0
Preemergence herbicidal rating CHEAL ([3]; 0.0625 kg/ha): 3.0
Preemergence herbicidal rating CHEAL ([3]; 0.1250 kg/ha): 9.0
Preemergence herbicidal rating CHEAL ([3]; 0.2500 kg/ha): 9.0
Preemergence herbicidal rating CHEAL ([3]; 0.5000 kg/ha): 9.0
Herbicidal rating AMBEL ([4]; rate 0.0156 kg/ha): 0.0
Herbicidal rating AMBEL ([4]; rate 0.0313 kg/ha): 3.0
Herbicidal rating AMBEL ([4]; rate 0.0625 kg/ha): 6.0
Herbicidal rating AMBEL ([4]; rate 0.1250 kg/ha): 7.0
Preemergence herbicidal rating ABUTH ([5]; 0.0156 kg/ha): 0.0
Preemergence herbicidal rating ABUTH ([5]; 0.0313 kg/ha): 2.0
Preemergence herbicidal rating ABUTH ([5]; 0.0625 kg/ha): 1.0
Preemergence herbicidal rating ABUTH ([5]; 0.1250 kg/ha): 7.0
Preemergence herbicidal rating ABUTH ([5]; 0.2500 kg/ha): 9.0
Preemergence herbicidal rating ABUTH ([5]; 0.5000 kg/ha): 9.0
Herbicidal rating IPOHE ([6]; rate 0.0156 kg/ha): 0.0
Herbicidal rating IPOHE ([6]; rate 0.0313 kg/ha): 2.0
Herbicidal rating IPOHE ([6]; rate 0.0625 kg/ha): 2.0
Herbicidal rating IPOHE ([6]; rate 0.1250 kg/ha): 7.0
herbicidal effect rating, MOOVA ([7]; 0.0313 kg/ha): 9.0
herbicidal effect rating, MOOVA ([7]; 0.0625 kg/ha): 9.0
herbicidal effect rating, MOOVA ([7]; 0.1250 kg/ha): 9.0
herbicidal effect rating, MOOVA ([7]; 0.2500 kg/ha): 9.0
herbicidal effect rating, SAGPY ([8]; 0.0313 kg/ha): 2.0
herbicidal effect rating, SAGPY ([8]; 0.0625 kg/ha): 4.0
herbicidal effect rating, SAGPY ([8]; 0.1250 kg/ha): 5.0
herbicidal effect rating, SAGPY ([8]; 0.2500 kg/ha): 6.0
Herbicidal rating TRZAWR ([9]; rate 0.0156 kg/ha): 1.5
Herbicidal rating TRZAWR ([9]; rate 0.0313 kg/ha): 1.5
Herbicidal rating TRZAWR ([9]; rate 0.0625 kg/ha): 2.5
Herbicidal rating TRZAWR ([9]; rate 0.1250 kg/ha): 3.0
Preemergence herbicidal rating AMBEL ([10]; 0.0156 kg/ha): 1.0
Preemergence herbicidal rating AMBEL ([10]; 0.0313 kg/ha): 0.0
Preemergence herbicidal rating AMBEL ([10]; 0.0625 kg/ha): 3.0
Preemergence herbicidal rating AMBEL ([10]; 0.1250 kg/ha): 6.0
Preemergence herbicidal rating AMBEL ([10]; 0.2500 kg/ha): 7.0
Preemergence herbicidal rating AMBEL ([10]; 0.5000 kg/ha): 7.0
Preemergence herbicidal rating CASOB ([11]; 0.0156 kg/ha): 0.0
Preemergence herbicidal rating CASOB ([11]; 0.0313 kg/ha): 0.0
Preemergence herbicidal rating CASOB ([11]; 0.0625 kg/ha): 2.0
Preemergence herbicidal rating CASOB ([11]; 0.1250 kg/ha): 0.0
Preemergence herbicidal rating CASOB ([11]; 0.2500 kg/ha): 4.0
Preemergence herbicidal rating CASOB ([11]; 0.5000 kg/ha): 6.0
Herbicidal rating CASOB ([12]; rate 0.0156 kg/ha): 0.0
Herbicidal rating CASOB ([12]; rate 0.0313 kg/ha): 0.0
Herbicidal rating CASOB ([12]; rate 0.0625 kg/ha): 0.0
Herbicidal rating CASOB ([12]; rate 0.1250 kg/ha): 1.0
Preemergence herbicidal rating GLXMAW ([13]; 0.0156 kg/ha): 0.0
Preemergence herbicidal rating GLXMAW ([13]; 0.0313 kg/ha): 2.0
Preemergence herbicidal rating GLXMAW ([13]; 0.0625 kg/ha): 2.0
Preemergence herbicidal rating GLXMAW ([13]; 0.1250 kg/ha): 2.0
Preemergence herbicidal rating GLXMAW ([13]; 0.2500 kg/ha): 6.0
Preemergence herbicidal rating GLXMAW ([13]; 0.5000 kg/ha): 6.0
Preemergence herbicidal rating ORYSAT ([14]; 0.0156 kg/ha): 0.0
Preemergence herbicidal rating ORYSAT ([14]; 0.0313 kg/ha): 0.0
Preemergence herbicidal rating ORYSAT ([14]; 0.0625 kg/ha): 1.0
Preemergence herbicidal rating ORYSAT ([14]; 0.1250 kg/ha): 1.0
Preemergence herbicidal rating ORYSAT ([14]; 0.2500 kg/ha): 1.0
Preemergence herbicidal rating ORYSAT ([14]; 0.5000 kg/ha): 5.0
Herbicidal rating GLXMAW ([15]; rate 0.0156 kg/ha): 4.0
Herbicidal rating GLXMAW ([15]; rate 0.0313 kg/ha): 3.5
Herbicidal rating GLXMAW ([15]; rate 0.0625 kg/ha): 4.0
Herbicidal rating GLXMAW ([15]; rate 0.1250 kg/ha): 5.0
Preemergence herbicidal rating IPOHE ([16]; 0.0156 kg/ha): 0.0
Preemergence herbicidal rating IPOHE ([16]; 0.0313 kg/ha): 3.0
Preemergence herbicidal rating IPOHE ([16]; 0.1250 kg/ha): 2.0
Preemergence herbicidal rating IPOHE ([16]; 0.2500 kg/ha): 6.0
Preemergence herbicidal rating IPOHE ([16]; 0.5000 kg/ha): 8.0
